Assay results from BindingDB's records for PubMed 11408610 (Virginia Commonwealth University, 2001).

Target: Cannabinoid receptor 1 (Rattus norvegicus, UniProt P20272)
Sequence (P20272 whole entry): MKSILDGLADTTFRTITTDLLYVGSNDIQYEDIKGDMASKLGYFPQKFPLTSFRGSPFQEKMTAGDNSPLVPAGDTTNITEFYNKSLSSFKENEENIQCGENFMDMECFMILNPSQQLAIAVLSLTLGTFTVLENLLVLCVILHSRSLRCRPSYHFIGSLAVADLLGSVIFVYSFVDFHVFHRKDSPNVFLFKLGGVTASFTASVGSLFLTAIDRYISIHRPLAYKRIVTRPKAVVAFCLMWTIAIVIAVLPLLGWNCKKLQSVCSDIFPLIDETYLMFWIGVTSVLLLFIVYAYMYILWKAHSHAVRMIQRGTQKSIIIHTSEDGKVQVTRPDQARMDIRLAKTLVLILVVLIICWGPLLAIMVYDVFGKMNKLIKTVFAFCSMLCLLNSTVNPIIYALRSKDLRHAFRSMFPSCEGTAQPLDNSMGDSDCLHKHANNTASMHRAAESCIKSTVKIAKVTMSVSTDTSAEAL

CCCCCn1ccc(C(=O)c2cccc3ccccc23)c1
Ki: 87 nM

CCCCn1cc(C(=O)c2cccc3ccccc23)c2ccccc21 [1-Naphthyl(1-butyl-1H-indole-3-yl)methanone]
Ki: 8.9 nM

CCCCC/C=C/C/C=C/C/C=C/C/C=C/CCC(C)(C)C(=O)NCCO [2-dimethyl-anandamide]
Ki: 47 nM

CCCCCc1cc(O)c2c(c1)OC(C)(C)c1ccc(C)cc1-2 [6,6,9-Trimethyl-3-pentyl-6H-benzo[c]chromen-1-ol(Cannabinol)]
Ki: 308 nM

CCCCC/C=C/C/C=C/C/C=C/C/C=C/CCC(C)C(=O)NCCO (configuration not stated) [(5Z,8Z,11Z,14Z)-2-Methyl-N-(2-hydroxyethyl)-5,8,11,14-icosatetrenamide]
Ki: 53 nM

CCCCC/C=C/C/C=C/C/C=C/C/C=C/CCC(C)C(=O)NCCF (configuration not stated) [(5Z,8Z,11Z,14Z)-N-(2-Fluoroethyl)-2-methyl-5,8,11,14-icosatetrenamide]
Ki: 5.7 nM

CCCCCCC(C)(C)c1cc(O)c2c(c1)OC(C)(C)[C@@H]1CC=C(CO)CC21 (stereo partly drawn) [(R)-3-(1,1-Dimethyl-heptyl)-9-hydroxymethyl-6,6-dimethyl-6a,7,10,10a-tetrahydro-6H-benzo[c]chromen-1-ol]
Ki: 0.73 nM

CCCCCCn1ccc(C(=O)c2cccc3ccccc23)c1 [CAS_162934-74-9]
Ki: 399 nM

CCCn1ccc(C(=O)c2cccc3ccccc23)c1 [JWH-032]
Ki: > 10000 nM

CCCCCCCn1ccc(C(=O)c2cccc3ccccc23)c1 [JWH-036]
Ki: 309 nM

Cn1ccc(C(=O)c2cccc3ccccc23)c1 [JWH-044]
Ki: > 10000 nM

CCn1ccc(C(=O)c2cccc3ccccc23)c1 [JWH-045]
Ki: > 10000 nM
